Source: US20130085064A1, “PESTICIDAL MIXTURES CONTAINING ISOXAZOLINE DERIVATIVES AND INSECTICIDE OR NEMATOICIDAL BIOLOGICAL AGENT” (priority 2010, published 2013)
Several values for one entry are separate records, joined by “and”; a condition that tells them apart may be missing. Identical values can stand only once. Like-named read-outs stand apart in the source and are kept apart here.

How the values were obtained:
Type in all cases: in vivo
[1] = test system: Spodoptera littoralis (Egyptian cotton leaf worm); experiment: Spodoptera littoralis larvicide L1, feeding/contact, cotton leaf discs; details: single compound
Description: (§1) The action to be expected E for a given active ingredient combination obeys the so-called COLBY formula and can be calculated as follows (COLBY, S.R. “Calculating synergistic and antagonistic responses of herbicide combination”. Weeds, Vol. 15, pages 20-22; 1967):
(§2) ppm=milligrams of active ingredient (=a.i.) per liter of spray mixture X=% action by active ingredient A) using p ppm of active ingredient Y=% action by active ingredient B) using q ppm of active ingredient.
(§3) According to COLBY, the expected (additive) action of active ingredients A)+B) using p+q ppm of active ingredient is
(§4) If the action actually observed (O) is greater than the expected action (E), then the action of the combination is super-additive, i.e. there is a synergistic effect. In mathematical terms the synergism factor SF corresponds to O/E. In the agricultural practice an SF of ≧1.2 indicates significant improvement over the purely complementary addition of activities (expected activity), while an SF of ≦0.9 in the practical application routine signals a loss of activity compared to the expected activity.
Spodoptera Littoralis (Egyptian Cotton Leaf Worm)
(Larvicide L1, Feeding/Contact)
Cotton leaf discs are placed on agar in Petri dishes and sprayed with test solutions in an application chamber. After drying, the leaf discs are infested with 10 L1 larvae. The samples are checked for mortality 5 days after treatment. 3 replicates per treatment were evaluated. (1 PPM=1 mg l^−1)

[2] = test system: Heliothis virescens (tobacco budworm); experiment: Heliothis virescens ovo-larvicide, feeding/contact, eggs on filter paper in Petri dishes; details: for activity on eggs: egg mortality, 7 days incubation; for AVERAGE DEAD IN % (LARVAE) / AVERAGE DEAD IN % (EGGS): single compound, 7 days
Description: as §1, §2, §3, §4
Heliothis Virescens (Tobacco Budworm):
(Ovo-Larvicide, Feeding/Contact)
30-35 fresh eggs (0-24 h old), deposited on filter paper, are placed in Petri dishes on top of a layer of artificial diet and 0.8 ml of diluted test solutions are pipetted onto them. After an incubation period of 7 days, samples are checked for egg and larval mortality. 3 replicates per treatment were evaluated.

[3] = test system: Heliothis virescens (tobacco budworm); experiment: Heliothis virescens eggs in 24-well microtiter plate on artificial diet, larval mortality; details: for pest or weed control at 0.025 ppm / pest or weed control at 0.05 ppm / pest or weed control at 0.1 ppm / pest or weed control at 0.2 ppm / pest or weed control at 0.4 ppm / pest or weed control at 0.8 ppm / pest or weed control at 25 ppm / pest or weed control at 50 ppm / pest or weed control at 100 ppm / pest or weed control at 200 ppm / pest or weed control at 400 ppm / pest or weed control at 800 ppm / pest or weed control at 6.25 ppm / pest or weed control at 12.5 ppm: Heliothis virescens, 96 h, read-out: AVERAGE DEAD IN %
Description: as §1, §2, §3, §4
Heliothis Virescens (Tobacco Budworm)
Eggs (0-24 h old) are placed in 24-well microtiter plate on artificial diet and treated with test solutions (DMSO) by pipetting. After an incubation period of 4 days, samples are checked for larval mortality.

[4] = test system: Tetranychus urticae (two spotted spider mite); experiment: Tetranychus urticae contact/feeding activity on bean plants, adult mortality
Description: as §1, §2, §3, §4
Tetranychus Urticae (Two Spotted Spider Mite)
(Contact/Feeding Activity)
Bean plants are infested with mite populations of mixed ages. 1 day after infestation, plants are treated in a spray chamber with diluted test solutions. 1 and 8 days later, samples are checked for adult mortality. 2 replicates per treatment were evaluated.

## CNC(=O)c1cc(C#N)cc(C)c1NC(=O)c1cc(Br)nn1-c1ncccc1Cl [Cyantraniliprole, cyantraniliprole]
[1]; 0.0125 PPM AI
  AVERAGE DEAD IN % AFTER 5 DAYS: 23%
[1]; 0.025 PPM AI
  AVERAGE DEAD IN % AFTER 5 DAYS: 27% and 30%
[1]; 0.05 PPM AI
  AVERAGE DEAD IN % AFTER 5 DAYS: 40% and 50%
[2]
  activity on eggs: inactive
[2]; 0.2 ppm AI, larvae
  AVERAGE DEAD IN % (LARVAE): 23%
[2]; 0.4 ppm AI, larvae
  AVERAGE DEAD IN % (LARVAE): 70% and 63%
[2]; 0.8 ppm AI, larvae
  AVERAGE DEAD IN % (LARVAE): 82% and 72%
[3]; Cyantraniliprole alone 0.025 ppm AI
  pest or weed control at 0.025 ppm: 0%
[3]; Cyantraniliprole alone 0.05 ppm AI
  pest or weed control at 0.05 ppm: 0%
[3]; Cyantraniliprole alone 0.1 ppm AI
  pest or weed control at 0.1 ppm: 45%
[3]; Cyantraniliprole alone 0.2 ppm AI
  pest or weed control at 0.2 ppm: 78%
[3]; Cyantraniliprole alone 0.4 ppm AI
  pest or weed control at 0.4 ppm: 90%
[3]; Cyantraniliprole alone 0.8 ppm AI
  pest or weed control at 0.8 ppm: 100%
[3]; single compound at 0.025 ppm AI
  pest or weed control at 0.025 ppm: 0%
[3]; single compound at 0.05 ppm AI
  pest or weed control at 0.05 ppm: 0%
[3]; single compound at 0.1 ppm AI
  pest or weed control at 0.1 ppm: 45%
[3]; single compound at 0.2 ppm AI
  pest or weed control at 0.2 ppm: 78%
[3]; single compound at 0.4 ppm AI
  pest or weed control at 0.4 ppm: 90%
[3]; single compound at 0.8 ppm AI
  pest or weed control at 0.8 ppm: 100%
[4]; 100 ppm alone
  AVERAGE DEAD IN % AFTER 8 DAYS: 35%
[4]; 200 ppm alone
  AVERAGE DEAD IN % AFTER 8 DAYS: 25%
[4]; Cyantraniliprole alone 100 ppm AI
  AVERAGE DEAD IN % AFTER 1 DAY: 0%
[4]; Cyantraniliprole alone 200 ppm AI
  AVERAGE DEAD IN % AFTER 1 DAY: 10%

## CC1=NNC(=O)N(/N=C/c2cccnc2)C1 [Pymetrozine, pymetrozine]
[1]; 100 PPM AI
  AVERAGE DEAD IN % AFTER 5 DAYS: 17% and 7%
[1]; 100 ppm AI
  AVERAGE DEAD IN % AFTER 5 DAYS: 7%
[1]; 200 PPM AI
  AVERAGE DEAD IN % AFTER 5 DAYS: 20% and 17%
[1]; 200 ppm AI
  AVERAGE DEAD IN % AFTER 5 DAYS: 17%
[2]
  activity on eggs: inactive
[2]; 100 ppm AI, larvae
  AVERAGE DEAD IN % (LARVAE): 0%
[2]; 200 PPM AI
  AVERAGE DEAD IN % (LARVAE): 37%
[2]; 200 ppm AI, larvae
  AVERAGE DEAD IN % (LARVAE): 40%
[3]; Pymetrozine alone 25 ppm AI
  pest or weed control at 25 ppm: 0%
[3]; Pymetrozine alone 50 ppm AI
  pest or weed control at 50 ppm: 0%
[3]; Pymetrozine alone 100 ppm AI
  pest or weed control at 100 ppm: 0%
[3]; Pymetrozine alone 200 ppm AI
  pest or weed control at 200 ppm: 0%
[3]; Pymetrozine alone 400 ppm AI
  pest or weed control at 400 ppm: 0%
[3]; Pymetrozine alone 800 ppm AI
  pest or weed control at 800 ppm: 0%
[3]; single compound at 25 ppm AI
  pest or weed control at 25 ppm: 0%
[3]; single compound at 50 ppm AI
  pest or weed control at 50 ppm: 0%
[3]; single compound at 100 ppm AI
  pest or weed control at 100 ppm: 0%
[3]; single compound at 200 ppm AI
  pest or weed control at 200 ppm: 0%
[3]; single compound at 400 ppm AI
  pest or weed control at 400 ppm: 0%
[3]; single compound at 800 ppm AI
  pest or weed control at 800 ppm: 0%
[4]; 200 ppm alone
  AVERAGE DEAD IN % AFTER 8 DAYS: 0%
[4]; Pymetrozine alone 200 ppm AI
  AVERAGE DEAD IN % AFTER 1 DAY: 5%

## CCOC(=O)OC1=C(c2cc(C)ccc2C)C(=O)N[C@]12CC[C@@H](OC)CC2 [Spirotetramat, spirotetramat]
[1]; 25 ppm AI
  AVERAGE DEAD IN % AFTER 5 DAYS: 23%
[1]; 50 PPM AI
  AVERAGE DEAD IN % AFTER 5 DAYS: 17% and 33%
[1]; 50 ppm AI
  AVERAGE DEAD IN % AFTER 5 DAYS: 33%
[1]; 100 PPM AI
  AVERAGE DEAD IN % AFTER 5 DAYS: 43% and 67%
[1]; 100 ppm AI
  AVERAGE DEAD IN % AFTER 5 DAYS: 67%
[2]; 100 ppm AI
  AVERAGE DEAD IN % (EGGS): 0%
[2]; 100 ppm AI, larvae
  AVERAGE DEAD IN % (LARVAE): 78%
[2]; 200 ppm AI
  AVERAGE DEAD IN % (EGGS): 67% and 65%
[2]; 200 ppm AI, larvae
  AVERAGE DEAD IN % (LARVAE): 100% and 98%
[3]; Spirotetramat alone 6.25 ppm AI
  pest or weed control at 6.25 ppm: 0%
[3]; Spirotetramat alone 12.5 ppm AI
  pest or weed control at 12.5 ppm: 0%
[3]; Spirotetramat alone 25 ppm AI
  pest or weed control at 25 ppm: 0%
[3]; Spirotetramat alone 50 ppm AI
  pest or weed control at 50 ppm: 0%
[3]; Spirotetramat alone 100 ppm AI
  pest or weed control at 100 ppm: 0%
[3]; Spirotetramat alone 200 ppm AI
  pest or weed control at 200 ppm: 0%
[3]; single compound at 6.25 ppm AI
  pest or weed control at 6.25 ppm: 0%
[3]; single compound at 12.5 ppm AI
  pest or weed control at 12.5 ppm: 0%
[3]; single compound at 25 ppm AI
  pest or weed control at 25 ppm: 0%
[3]; single compound at 50 ppm AI
  pest or weed control at 50 ppm: 0%
[3]; single compound at 100 ppm AI
  pest or weed control at 100 ppm: 0%
[3]; single compound at 200 ppm AI
  pest or weed control at 200 ppm: 0%
[4]; 0.1 ppm alone
  AVERAGE DEAD IN % AFTER 8 DAYS: 10%
[4]; 0.2 ppm alone
  AVERAGE DEAD IN % AFTER 8 DAYS: 33%
[4]; 0.4 ppm alone
  AVERAGE DEAD IN % AFTER 8 DAYS: 38%
[4]; Spirotetramat alone 0.1 ppm AI
  AVERAGE DEAD IN % AFTER 1 DAY: 13%
[4]; Spirotetramat alone 0.2 ppm AI
  AVERAGE DEAD IN % AFTER 1 DAY: 18%
[4]; Spirotetramat alone 0.4 ppm AI
  AVERAGE DEAD IN % AFTER 1 DAY: 23%

## emamectin benzoate
[1]; 0.003125 PPM AI
  AVERAGE DEAD IN % AFTER 5 DAYS: 20%
[1]; 0.00625 PPM AI
  AVERAGE DEAD IN % AFTER 5 DAYS: 23%
[1]; 0.0125 PPM AI
  AVERAGE DEAD IN % AFTER 5 DAYS: 30% and 27%
[2]
  activity on eggs: inactive
[2]; 0.0015 ppm AI, larvae
  AVERAGE DEAD IN % (LARVAE): 5%
[2]; 0.003 ppm AI, larvae
  AVERAGE DEAD IN % (LARVAE): 5%
[2]; 0.006 ppm AI, larvae
  AVERAGE DEAD IN % (LARVAE): 10%
[3]; single compound at 0.00075 ppm AI
  AVERAGE DEAD IN %: 0%
[3]; single compound at 0.0015 ppm AI
  AVERAGE DEAD IN %: 0%
[3]; single compound at 0.003 ppm AI
  AVERAGE DEAD IN %: 0%
[3]; single compound at 0.006 ppm AI
  AVERAGE DEAD IN %: 0%
[3]; single compound at 0.012 ppm AI
  AVERAGE DEAD IN %: 55%
[3]; single compound at 0.024 ppm AI
  AVERAGE DEAD IN %: 93%
[4]; 0.0125 ppm alone
  AVERAGE DEAD IN % AFTER 8 DAYS: 5%
[4]; 0.025 ppm alone
  AVERAGE DEAD IN % AFTER 8 DAYS: 23%
[4]; 0.05 ppm alone
  AVERAGE DEAD IN % AFTER 8 DAYS: 38%
[4]; Emamectin benzoate alone 0.0125 ppm AI
  AVERAGE DEAD IN % AFTER 1 DAY: 0%
[4]; Emamectin benzoate alone 0.025 ppm AI
  AVERAGE DEAD IN % AFTER 1 DAY: 8%
[4]; Emamectin benzoate alone 0.05 ppm AI
  AVERAGE DEAD IN % AFTER 1 DAY: 0%
